Entries after “also recorded” stand apart in the source; their conditions may differ. Where a name gives a salt, the structure may show the parent alone.
How the values were obtained:
Assay type in all cases: in vivo, human
[1] = Safety: adverse events graded by CTCAE v3.0 in native Chinese cancer patients
Method: Eligibility assessments, which consisted of a complete medical history, physical examination, ECOG performance status, vital sign measurements, concomitant drugs, ECG, laboratory tests, one or more relevant radiologic test(s) for tumor measurement (computed tomography scan, magnetic resonance imaging, X-ray, or bone scan) and tumor measurement of palpable or visible lesions, were conducted within 28 days before the lead-in day. Lead-in day (within 7 days before treatment initiation) assessments included physical examination, ECOG performance status, vital sign measurements, concomitant drugs, ECG (at 0 and 4 h) and laboratory tests.
ECGs were performed 4 h after treatment on days 1 and 2. Patients received the same assessments on day 14 as on the lead-in day, except that ECGs were performed predose (0 h) and 4 h postdose. Blood samples for PK were collected from days 14 to 18. After retreatment for 2 to 4 weeks from day 18, patients were re-evaluated to determine whether they should continue in the safety extension phase or washout prior to withdrawal from the study.
(§1) All patients who entered the safety extension phase were evaluated with a physical examination, vital signs, laboratory tests, concomitant drugs, ECG at a 4-week follow-up visit, tumor measurements and imaging studies at 4- to 8-week intervals.
(§2) All observed AEs were graded using the CTCAE, version 3.0 (NCI 2003). Imaging studies of involved disease sites were repeated every 4 to 8 weeks in patients who entered the safety extension phase. All lesion assessments, whether by physical examination or radiologic methods, were repeated by the same methods at least 4 weeks following the initial observation of an objective response for response confirmation. Responses were recorded based on Response Evaluation Criteria in Solid Tumors, version 1.0 (RECIST 1.0), and Revised Response Criteria for Malignant Lymphoma.

[2] = system: refractory solid tumors and lymphoma; experiment: Anti-tumor response (RECIST 1.0 / Revised Response Criteria for Malignant Lymphoma), safety extension phase
Method: as §1, §2

[3] = Steady-state plasma pharmacokinetics of enzastaurin and metabolites in native Chinese cancer patients (LC-MS/MS, noncompartmental)
Method: Then, the study drug ceased for three days (days 15 to 17) and resumed on day 18, after the last PK sample was obtained. During the study, dosing occurred at approximately the same time of day for each individual patient.
Nominal collection times were day 14 predose and 1, 2, 4, 6, 8, 10, 24, 48, 72, and 96 h postdose. […] The actual sampling time was accurately recorded for analysis.
Pharmacokinetic parameters were calculated using noncompartmental methods of analysis using WinNonlin (Pharsight Corp., Cary, NC, USA). […] Total plasma analyte AUCτ, ss and Cav ss were calculated by summing the respective AUCτ, ss or Cav, ss estimates for each of the 4 individual analytes. Total plasma analyte Cmax was reported as the highest sum of individual analyte concentrations at any given sampling time during a concentration-time profile, not the sum of the Cmax of each analyte. […] The AUC was calculated by a combination of linear and logarithmic trapezoidal methods. The linear trapezoidal method was employed up to tmax, and the log trapezoidal method was then used for data after tmax. PK measurements were calculated based on the actual collection times. Patients with insufficient data were excluded from the analysis.

[4] = of 9 non-Hodgkin lymphoma patients
[5] = of 10 evaluated lymphoma patients

## Cn1cc(C2=C(c3cn(C4CCN(Cc5ccccn5)CC4)c4ccccc34)C(=O)NC2=O)c2ccccc21 [enzastaurin, Enzastaurin monohydrochloride]
[1]; 500 mg daily, Chinese patients
  Tolerability: well tolerated with minimal toxicity
[1]; 500 mg once daily
  Deaths or serious adverse events during the study: No deaths or other serious adverse events; also recorded: Neither drug-related deaths nor serious AEs were reported
  Discontinuation because of an AE: No patients discontinued because of an AE; also recorded: No patient withdrew from the study because of toxicity
[1]; PK phase
  Patients reporting at least 1 AE (percent): 80%
  Patients reporting at least 1 AE, drug related: 14
[1]; PK phase, 25 patients treated
  Patients reporting at least 1 AE: 20 patients
[1]; maximum grade 0, n = 25
  Number of patients with drug-related abdominal pain, grade 0: 22
  Number of patients with drug-related anemia, grade 0: 24
  Number of patients with drug-related chromaturia, grade 0: 22
  Number of patients with drug-related diarrhea, grade 0: 24
  Number of patients with drug-related fatigue, grade 0: 24
  Number of patients with drug-related increased ALT, grade 0: 22
  Number of patients with drug-related increased AST, grade 0: 23
  Number of patients with drug-related insomnia, grade 0: 24
  Number of patients with drug-related leukopenia, grade 0: 23
  Number of patients with drug-related lymphocytopenia, grade 0: 23
  Number of patients with drug-related nausea, grade 0: 24
  Number of patients with drug-related neutropenia, grade 0: 24
  Number of patients with drug-related thrombocytopenia, grade 0: 24
[1]; maximum grade 0, n = 25, 500 mg daily
  Number of patients with drug-related QT prolongation, grade 0: 21
[1]; maximum grade 1, n = 25
  Number of patients with drug-related abdominal pain, grade 1: 3
  Number of patients with drug-related anemia, grade 1: 1
  Number of patients with drug-related chromaturia, grade 1: 3
  Number of patients with drug-related fatigue, grade 1: 1
  Number of patients with drug-related increased ALT, grade 1: 3
  Number of patients with drug-related increased AST, grade 1: 2
  Number of patients with drug-related leukopenia, grade 1: 1
  Number of patients with drug-related lymphocytopenia, grade 1: 1
  Number of patients with drug-related nausea, grade 1: 1
  Number of patients with drug-related neutropenia, grade 1: 1
  Number of patients with drug-related thrombocytopenia, grade 1: 1
[1]; maximum grade 1, n = 25, 500 mg daily
  Number of patients with drug-related QT prolongation, grade 1: 1
[1]; maximum grade 2, n = 25
  Number of patients with drug-related diarrhea, grade 2: 1
  Number of patients with drug-related insomnia, grade 2: 1
  Number of patients with drug-related leukopenia, grade 2: 1
  Number of patients with drug-related lymphocytopenia, grade 2: 1
[1]; maximum grade 2, n = 25, 500 mg daily
  Number of patients with drug-related QT prolongation, grade 2: 2
[1]; maximum grade 3, n = 25, 500 mg daily
  Number of patients with drug-related QT prolongation, grade 3: 1
[1]; regardless of causality, CTCAE
  Patients who experienced grade 3 AEs: 7 patients
[1]; regardless of causality, neutropenia considered caused by leukemia
  Patients who experienced a grade 4 AE: 1
[1]; safety extension phase
  Patients reporting at least 1 AE (percent): 53.3%
  Patients reporting at least 1 AE, drug related: 5
[1]; safety extension phase, 15 patients
  Patients reporting at least 1 AE: 8 patients
[2]; [4]
  NHL patients who achieved a partial response: 1
  NHL patients who achieved stable disease: 4
  NHL patients with complete response on enzastaurin maintenance therapy after salvage chemotherapy: 1
[2]; [5]
  Lymphoma patients with progressive disease: three
  Lymphoma patients with stable disease: five
[2]; one Hodgkin lymphoma patient
  Duration of stable disease: 22.1 months
[2]; one follicular lymphoma patient
  Duration of stable disease: 25.2 months
[2]; one patient with relapsed DLBCL
  Duration of partial response: 8.1 months
[2]; one patient with relapsed DLBCL, still on drug at last follow-up
  Disease-free time on enzastaurin after complete response following salvage chemotherapy: 30 months
[2]; overall judgement
  Activity in advanced/metastatic solid tumors: poor activity
  Efficacy against lymphoma: limited efficacy
[2]; relapsed DLBCL patient, PET-CT
  Time of treatment at which partial response was observed: 1.8 months
[3]; 500 mg orally once daily, steady state, geometric mean (% CV), N = 23
  Cav, ss: 1,210 nmol/L
[3]; 500 mg orally once daily, steady state, geometric mean (% CV), N = 23, listed as Enzastaurin
  Cav, ss: 1210 (128) nmol/L
[3]; human, plasma, po, 500 mg
  Cmax: 2370 nM
[3]; human, plasma, po, 500 mg, 500 mg orally once daily, steady state, median and range, N = 23
  Tmax: ≤ 4 h
[3]; human, plasma, po, 500 mg orally once daily, steady state, one dosing interval, geometric mean (% CV), N = 23
  AUC: 29.1 µM·h
[3]; human, plasma, po, 500 mg orally once daily, washout days 15-17, geometric mean and range, N = 21
  half-life: 14 h
